Data taken from patent US8506946B2, “Compositions and methods for attracting noctuid moths” (Cotton Incorporated, priority 2006, dated 2013).

What was measured:
[1] = system: Spodoptera exigua; assay: Field trap capture of Spodoptera exigua with (Z)-11-hexadecen-1-ol with or without synergist (Tedders traps); format: in vivo; conditions: approximately 3-6 mg β-caryophyllene added to (Z)-11-hexadecen-1-ol vs control trap with (Z)-11-hexadecen-1-ol only
Protocol: An experiment was carried out in three locations in Arkansas to study the response of beet army worm, Spodoptera exigua, in a cotton field to a pheromone synergist. The locations were near Fayetteville, Washington County, near Tillar, Drew County, and near Foreman, Little River County. β-caryophyllene was used as a synergist with (Z)-11-hexadecen-1-ol, a pheromone for Spodoptera exigua. Tedders traps were used in the experiment. Each pheromone trap was baited with (Z)-11-hexadecen-1-ol and approximately 3-6 mg of β-caryophyllene and each control trap was baited with (Z)-11-hexadecen-1-ol. The control trap contained no β-caryophyllene or other synergists. The trapped adult insects of Spodoptera exigua were collected on a daily basis and the total number of trapped insects was counted. Statistical analysis was done using the Least Squares means separation from the SAS GLM procedure.

[2] = system: Heliothis virescens; assay: Field trap capture of Heliothis virescens with pheromone mixture with or without synergist (Tedders traps); format: in vivo
Protocol: An experiment was carried out near Monticello, Drew County in Arkansas to study the response of tobacco bud worm, Heliothis virescens to a pheromone synergist. The experiment was carried out in a habitat of cotton and soybean. β-caryophyllene was used as a synergist with a mixture of pheromones (Z,E)-9,12-tetradecadien-1-ol acetate and (Z)-9-tetradecen-1-ol acetate at the ratio of 7:3. Tedders traps were used in the experiment. Each pheromone trap was baited with the pheromone mixture and approximately 3-6 mg of 3-caryophyllene and each control trap was baited with the pheromone mixture. The control trap contained no β-caryophyllene or other synergists. The pheromone mixture used in the experiment was LURETAPE® obtained from Hereon Environmental in Emigsville, Pa. The trapped adult insects of Heliothis virescens were collected on a daily basis and the total number of trapped insects was counted. Statistical analysis was done using the Least Squares means separation from the SAS GLM procedure.

For `C=C1CC/C=C(\C)CC[C@@H]2[C@@H]1CC2(C)C` [β-caryophyllene], the “change in the number of captured Spodoptera exigua” value ([1]; year 2004, FIG. 4) was about −9%, the “increase in the number of captured Spodoptera exigua” value ([1]; year 2005, cotton field, three locations in Arkansas, FIG. 3) was about 69% and the “increase in the number of captured Heliothis virescens” value ([2]; year 2004, approximately 3-6 mg β-caryophyllene added to pheromone mixture 7:3 (LURETAPE) vs control trap with pheromone mixture only, FIG. 2) was about 147%. The “increase in the number of captured Heliothis virescens” value ([2]; year 2005, approximately 3-6 mg β-caryophyllene added to pheromone mixture (Z,E)-9,12-tetradecadien-1-ol acetate and (Z)-9-tetradecen-1-ol acetate 7:3 (LURETAPE) vs control trap with pheromone mixture only, cotton and soybean habitat, Arkansas, FIG. 1) was about 131%.
